Source: patent publication US4692443A, “3-bicyclicpyridinium-methyl cephalosporins” (Eli Lilly and Company, priority 1984, dated 1987)
≈ marks a conversion by molar mass, not a printed value. Like-named read-outs stand apart in the source and are kept apart here.

Legend:
Format in all cases: cell-based
Staph. aureus X1.1 = assay: standard in vitro agar dilution assay (MIC); conditions: Staphylococcus aureus
Staph. aureus V41 = assay: standard in vitro agar dilution assay (MIC); conditions: Staphylococcus aureus; Staph. aureus strain V41; read-out: Agar Dilution MIC
Staph. aureus X400 = assay: standard in vitro agar dilution assay (MIC); conditions: Staphylococcus aureus; Staph. aureus strain X400
Staph. aureus S13E = assay: microbe, parasite or virus in culture; conditions: Staphylococcus aureus, read-out: Agar Dilution MIC
Staph. epi EPI1 = assay: standard in vitro agar dilution assay (MIC); conditions: Staph. epi strain EPI1
Staph. epi 222 = assay: standard in vitro agar dilution assay (MIC); conditions: Staph. epi strain 222
Strep. A C203 = assay: standard in vitro agar dilution assay (MIC); conditions: Strep. A strain C203
Strep. PN PARK = assay: standard in vitro agar dilution assay (MIC); conditions: Strep. PN strain PARK
Strep. D X66 = assay: standard in vitro agar dilution assay (MIC); conditions: Strep. D strain X66
Strep. D 9960 = assay: standard in vitro agar dilution assay (MIC); conditions: Strep. D strain 9960
H. influ. C.L. = assay: standard in vitro agar dilution assay (MIC); conditions: read-out: Agar Dilution MIC
Klebsiella X26 = assay: standard in vitro agar dilution assay (MIC); conditions: Klebsiella strain X26; read-out: Agar Dilution MIC
Klebsiella KAE = assay: standard in vitro agar dilution assay (MIC); conditions: Klebsiella strain KAE; read-out: Agar Dilution MIC
Enterobacter cloacae EB5 = assay: standard in vitro agar dilution assay (MIC)
Salmonella X514 = assay: standard in vitro agar dilution assay (MIC)
Pseudomonas X528 = assay: standard in vitro agar dilution assay (MIC); conditions: Pseudomonas strain X528
Source text: The antibacterial activity of several representative compounds of the invention has been evaluated in standard in vitro agar dilution assays. The following Table presents typical minimum inhibitory concentrations (MIC's) in μg /ml for exemplary compounds when evaluated against typical Gram + and Gram - microorganism.

Pseudomonas X239 = assay: standard in vitro agar dilution assay (MIC); conditions: Pseudomonas strain X239
Serratia X99 = assay: standard in vitro agar dilution assay (MIC)
E. coli N10 = assay: standard in vitro agar dilution assay (MIC); conditions: Escherichia coli; E. coli strain N10; read-out: Agar Dilution MIC
Klebsiella X68 = assay: standard in vitro agar dilution assay (MIC)
[1] = test system: Enterobacter aerogenes C32; assay: standard in vitro agar dilution assay (MIC); conditions: Klebsiella aerogenes
E. coli EC14 = assay: standard in vitro agar dilution assay (MIC); conditions: Escherichia coli
E. coli TEM = assay: standard in vitro agar dilution assay (MIC); conditions: Escherichia coli; E. coli strain TEM; read-out: Agar Dilution MIC
[2] = Enterobacter cloacae, EB5, read-out: Agar Dilution MIC
[3] = Salmonella strain X514, read-out: Agar Dilution MIC
[4] = Serratia, X99, read-out: Agar Dilution MIC
[5] = Staph. aureus strain X1.1, read-out: Agar Dilution MIC
[6] = Klebsiella, X68, read-out: Agar Dilution MIC
[7] = C32, read-out: Agar Dilution MIC

In the case of `CO/N=C(\C(=O)NC1C(=O)N2C(C(=O)[O-])=C(C[n+]3ccc4oc(C)nc4c3)CSC12)c1csc(N)n1` (stereo not drawn) [Example 11, syn-7-[2-(2-aminothiazol-4-yl)-2-methoxyiminoacetamido]-3-(2-methyloxazolo[4,5-c]pyridinium-5-ylmethyl)-3-cephem-4-carboxylate], the MIC (Staph. aureus X1.1; X1.1, read-out: Agar Dilution MIC) is reported as 0.5 µg/mL (≈ 0.944 µM), the MIC (Staph. aureus V41) is reported as 8 µg/mL (≈ 15.1 µM) and the MIC (Staph. aureus X400) is reported as 32 µg/mL (≈ 60.4 µM). The MIC (Staph. aureus S13E) was 8 µg/mL (≈ 15.1 µM), the MIC (Staph. epi EPI1) was 4 µg/mL (≈ 7.55 µM) and the MIC (Staph. epi 222) was 1 µg/mL (≈ 1.89 µM). It also gave an MIC (Strep. A C203) of 0.015 µg/mL (≈ 0.0283 µM), an MIC (Strep. PN PARK) of 0.015 µg/mL (≈ 0.0283 µM) and an MIC (Strep. D X66) greater than 128 µg/mL. For the same compound, the MIC (Strep. D 9960) was 8 µg/mL (≈ 15.1 µM), the MIC (H. influ. C.L.) was 0.125 µg/mL (≈ 0.236 µM) and the MIC (Klebsiella X26) was 0.015 µg/mL (≈ 0.0283 µM). For the same compound, the MIC (Klebsiella KAE) was 4 µg/mL (≈ 7.55 µM), the MIC (Enterobacter cloacae EB5; [2]) was 0.125 µg/mL (≈ 0.236 µM) and the MIC (Salmonella X514; [3]) was 0.03 µg/mL (≈ 0.0567 µM). The MIC (Pseudomonas X528) was 4 µg/mL (≈ 7.55 µM), the MIC (Pseudomonas X239) was 2 µg/mL (≈ 3.78 µM) and the MIC (Serratia X99; [4]) was 0.125 µg/mL (≈ 0.236 µM).

In the case of `CO/N=C(\C(=O)NC1C(=O)N2C(C(=O)[O-])=C(C[n+]3ccc4[nH]c(-c5cccs5)nc4c3)CSC12)c1csc(N)n1` (stereo not drawn) [Example 8, syn-7-[2-(2-aminothiazol-4-yl)-2-methoxyiminoacetamido]-3-[2-(2-thienyl)-1H-imidazolo[4,5-c]pyridinium-5-ylmethyl)-3-cephem-4-carboxylate], the MIC (Staph. aureus X1.1; [5]) is reported as 2 µg/mL (≈ 3.35 µM), the MIC (Staph. aureus V41) is reported as 8 µg/mL (≈ 13.4 µM) and the MIC (Staph. aureus X400) is reported as 32 µg/mL (≈ 53.6 µM). For the same compound, the MIC (Staph. aureus S13E) was 8 µg/mL (≈ 13.4 µM), the MIC (Staph. epi EPI1) was 4 µg/mL (≈ 6.7 µM) and the MIC (Staph. epi 222) was 2 µg/mL (≈ 3.35 µM). For the same compound, the MIC (Strep. A C203) was less than 0.008 µg/mL, the MIC (Strep. PN PARK) was less than 0.008 µg/mL and the MIC (Strep. D X66) was greater than 128 µg/mL. For the same compound, the MIC (Strep. D 9960) was 4 µg/mL (≈ 6.7 µM), the MIC (H. influ. C.L.) was 0.25 µg/mL (≈ 0.419 µM) and the MIC (E. coli N10) was 1 µg/mL (≈ 1.68 µM). It also gave an MIC (Klebsiella X26) of 0.015 µg/mL (≈ 0.0251 µM), an MIC (Klebsiella KAE) of 4 µg/mL (≈ 6.7 µM) and an MIC (Klebsiella X68; [6]) of 0.5 µg/mL (≈ 0.838 µM). For the same compound, the MIC [1, 7] was 0.5 µg/mL (≈ 0.838 µM), the MIC (Enterobacter cloacae EB5; [2]) was 0.5 µg/mL (≈ 0.838 µM) and the MIC (Salmonella X514; [3]) was 0.5 µg/mL (≈ 0.838 µM). The MIC (Serratia X99; [4]) was 0.5 µg/mL (≈ 0.838 µM).

In the case of `CO/N=C(\C(=O)NC1C(=O)N2C(C(=O)[O-])=C(C[n+]3ccc4c(c3)ncn4C)CSC12)c1csc(N)n1` (stereo not drawn) [Example 4, syn-7-[2-(2-aminothiazol-4-yl)-2-methoxyiminoacetamido]-3-(1-methyl-1H-imidazolo[4,5-c]pyridinium-5-ylmethyl)-3-cephem-4-carboxylate], the MIC (Staph. aureus X1.1; [5]) is reported as 1 µg/mL (≈ 1.89 µM), the MIC (Staph. aureus V41) is reported as 8 µg/mL (≈ 15.1 µM) and the MIC (Staph. aureus X400) is reported as 64 µg/mL (≈ 121 µM). For the same compound, the MIC (Staph. aureus S13E) was 8 µg/mL (≈ 15.1 µM), the MIC (Staph. epi EPI1) was 2 µg/mL (≈ 3.78 µM) and the MIC (Staph. epi 222) was 1 µg/mL (≈ 1.89 µM). The MIC (Strep. A C203) was 0.15 µg/mL (≈ 0.284 µM), the MIC (Strep. PN PARK) was 0.15 µg/mL (≈ 0.284 µM) and the MIC (Strep. D X66) was greater than 128 µg/mL. The MIC (Strep. D 9960) was 2 µg/mL (≈ 3.78 µM), the MIC (E. coli N10) was 0.03 µg/mL (≈ 0.0568 µM) and the MIC (E. coli EC14; E. coli strain EC14, read-out: Agar Dilution MIC) was less than 0.008 µg/mL. It also gave an MIC (E. coli TEM) of 0.015 µg/mL (≈ 0.0284 µM), an MIC (Klebsiella X26) of 0.015 µg/mL (≈ 0.0284 µM) and an MIC (Klebsiella KAE) of 4 µg/mL (≈ 7.57 µM). The MIC (Klebsiella X68; Klebsiella strain X68, read-out: Agar Dilution MIC) was 0.015 µg/mL (≈ 0.0284 µM), the MIC ([1]; Enterobacter aerogenes strain C32, read-out: Agar Dilution MIC) was 0.03 µg/mL (≈ 0.0568 µM) and the MIC (Enterobacter cloacae EB5; Enterobacter cloacae strain EB5, read-out: Agar Dilution MIC) was 0.03 µg/mL (≈ 0.0568 µM). It also gave an MIC (Salmonella X514; Salmonella, X514, read-out: Agar Dilution MIC) of 0.05 µg/mL (≈ 0.0946 µM), an MIC (Pseudomonas X528) of 1 µg/mL (≈ 1.89 µM) and an MIC (Pseudomonas X239) of 2 µg/mL (≈ 3.78 µM).

Compound `CO/N=C(\C(=O)NC1C(=O)N2C(C(=O)[O-])=C(C[n+]3ccc4[nH]c(-c5ccccc5)nc4c3)CSC12)c1csc(N)n1` (stereo not drawn) [Example 9, syn-7-[2-(2-aminothiazol-4-yl)-2-methoxyiminoacetamido]-3-(2-phenyl-1H-imidazolo[4,5-c]pyridinium-5-ylmethyl)-3-cephem-4-carboxylate] has an MIC (Staph. aureus X1.1; [5]) of 2 µg/mL (≈ 3.39 µM), an MIC (Staph. aureus V41) of 8 µg/mL (≈ 13.5 µM) and an MIC (Staph. aureus X400) of 32 µg/mL (≈ 54.2 µM). For the same compound, the MIC (Staph. aureus S13E) was 8 µg/mL (≈ 13.5 µM), the MIC (Staph. epi EPI1) was 4 µg/mL (≈ 6.77 µM) and the MIC (Staph. epi 222) was 2 µg/mL (≈ 3.39 µM). For the same compound, the MIC (Strep. A C203) was less than 0.008 µg/mL, the MIC (Strep. PN PARK) was less than 0.008 µg/mL and the MIC (Strep. D X66) was greater than 128 µg/mL. The MIC (Strep. D 9960) was 4 µg/mL (≈ 6.77 µM), the MIC (H. influ. C.L.; H. influ. strain C.L.) was 0.5 µg/mL (≈ 0.847 µM) and the MIC (E. coli N10) was 1 µg/mL (≈ 1.69 µM). The MIC (E. coli EC14; EC14, read-out: Agar Dilution MIC) was 0.125 µg/mL (≈ 0.212 µM), the MIC (Klebsiella X26) was 0.015 µg/mL (≈ 0.0254 µM) and the MIC (Klebsiella KAE) was 2 µg/mL (≈ 3.39 µM). It also gave an MIC (Klebsiella X68; [6]) of 0.5 µg/mL (≈ 0.847 µM), an MIC [1, 7] of 0.5 µg/mL (≈ 0.847 µM) and an MIC (Enterobacter cloacae EB5; [2]) of 0.5 µg/mL (≈ 0.847 µM). It also gave an MIC (Salmonella X514; [3]) of 0.5 µg/mL (≈ 0.847 µM) and an MIC (Serratia X99; Serratia strain X99, read-out: Agar Dilution MIC) of 1 µg/mL (≈ 1.69 µM).
